Consider 30 molecules from patent US20050222147A1, “Process for the preparation of morpholine derivatives and intermediates therefore” (priority 2000, published 2005).

Structures are written as SMILES. Structures can show the parent of a compound that is named as a salt.

The target in one test is T1, CCR-3 (Homo sapiens, UniProt P51677).
T1 construct: expressed in transfected cells
T1 sequence (P51677 1-355): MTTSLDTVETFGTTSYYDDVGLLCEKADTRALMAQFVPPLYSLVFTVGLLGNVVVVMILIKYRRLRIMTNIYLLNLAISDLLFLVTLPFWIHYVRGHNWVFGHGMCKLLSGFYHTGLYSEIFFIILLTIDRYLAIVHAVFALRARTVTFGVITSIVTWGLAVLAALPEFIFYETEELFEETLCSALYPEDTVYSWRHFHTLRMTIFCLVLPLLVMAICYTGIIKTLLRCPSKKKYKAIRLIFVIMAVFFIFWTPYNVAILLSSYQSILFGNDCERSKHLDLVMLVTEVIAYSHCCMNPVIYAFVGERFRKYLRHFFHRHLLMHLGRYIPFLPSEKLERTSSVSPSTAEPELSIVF
Kind of test: CCR-3 competition binding SPA (scintillation proximity assay). To be noted: read-out: CCR-3 Binding Assay (pIC50) (converted). As to the method:
A CCR-3 competition binding SPA (scintillation proximity assay) was used to assess the affinity of novel compounds for CCR-3. Membranes prepared from K562 cells stably expressing CCR-3 (2.51 μg/well) were mixed with 0.25 mg/well wheat-germ agglutinin SPA beads (Amersham) and incubated in binding buffer (HEPES 50 mM, CaCl2 1 mM, MgCl2 5 mM, 0.5% BSA) at 4° C. for 1.5 hr. Following incubation, 20 pM of [^125I) eotaxin (Amersham) and increasing concentrations of compound (1 pM to 30 μM) were added and incubated in a 96 well plate for 2 hr at 22° C. then counted on a Microbeta plate counter. The total assay volume was 100 μl. Competition binding data were analysed by fitting the data with a four parameter logistic equation. Data are presented as the mean pIC50 values (negative logarithm of the concentration of compound which inhibits [^125I] eotaxin binding by 50%) from at least two experiments.
(In general: In a scintillation proximity assay essentially only radioactivity close to the scintillant gives light.)
As for `C[C@H]1CO[C@H](CNC(=O)Cc2ccccc2)CN1Cc1ccc(Cl)c(Cl)c1` (relative stereo) [Example 25, N-{[(trans)4-(3,4-Dichlorobenzyl)-5-methylmorpholin-2-yl]methyl}-2-phenylacetamide], the IC50 is 60.3 nM.
With `CSc1ccc(CC(=O)NCC2CN(Cc3ccc(Cl)c(Cl)c3)CCO2)cc1` (stereo not shown) [Example 5, N-{[4-(3,4-Dichlorobenzyl)morpholin-2-yl]methyl}-2-[4-(methylthio)phenyl]acetamide], the IC50 was 77.6 nM.
Take `O=C(Cc1ccc(F)c(F)c1)NCC1CN(Cc2ccc(Cl)c(Cl)c2)CCO1` (stereo not shown) [Example 6, N-{[4-(3,4-Dichlorobenzyl)morpholin-2-yl]methyl}-2-(3,4-difluorophenyl)acetamide]: the IC50 is 138 nM.
`CN(C)S(=O)(=O)c1ccc(CC(=O)NCC2CN(Cc3ccc(Cl)c(Cl)c3)CCO2)cc1` (stereo not shown) [Example 7, N-{[4-(3,4-Dichlorobenzyl)morpholin-2-yl]methyl}-2-{4-[(dimethylamino)sulfonyl]phenyl}acetamide salt with formic acid (1:1)]: the IC50 was 15.1 nM.
The same measure, in the same setting: next, `O=C(Cc1cccc(Cl)c1)NCC1CN(Cc2ccc(Cl)c(Cl)c2)CCO1` (stereo not shown) [Example 8, 2-(3-Chlorophenyl)-N-{[4-(3,4-dichlorobenzyl)morpholin-2-yl]methyl}acetamide]: 145 nM; `NC(=O)c1ccc(CC(=O)NCC2CN(Cc3ccc(Cl)c(Cl)c3)CCO2)cc1` (stereo not shown) [Example 10, 4-[2-({[4-(3,4Dichlorobenzyl)morpholin-2-yl]methyl}amino)-2-oxoethyl]benzamide]: 158 nM; `O=C(Cc1cc(Cl)ccc1Cl)NCC1CN(Cc2ccc(Cl)c(Cl)c2)CCO1` (stereo not shown) [Example 13, N-{[4-(3,4-Dichlorobenzyl)morpholin-2-yl]methyl}-2-(2,5-dichlorophenyl)acetamide]: 240 nM.
Still for that read-out and setting: next, `O=C(Cc1ccc(C(F)(F)F)cc1)NCC1CN(Cc2ccc(Cl)c(Cl)c2)CCO1` (stereo not shown) [Example 14]: 339 nM.
On the same count and under the same terms, next, `Cc1cc(F)ccc1CC(=O)NCC1CN(Cc2ccc(Cl)c(Cl)c2)CCO1` (stereo not shown) [Example 19, N-{[4-(3,4-Dichlorobenzyl)morpholin-2-yl]methyl}-2-(4-fluoro-2-methylphenyl)acetamide]: 832 nM; `COc1ccc(CC(=O)NCC2CN(Cc3ccc(Cl)c(Cl)c3)CCO2)cc1` (stereo not shown) [Example 22, N-{[4-(3,4-Dichlorobenzyl)morpholin-2-yl]methyl}-2-(4-methoxyphenyl)acetamide]: 110 nM.
With `COc1ccc2[nH]c(C)c(CC(=O)NCC3CN(Cc4ccc(Cl)c(Cl)c4)CCO3)c2c1` (stereo not shown) [Example 31, N-{[4-(3,4-Dichlorobenzyl)morpholin-2-yl]methyl}-2-(5-methoxy-2-methyl-1H-indol-3-yl)acetamide], the IC50 was 513 nM.
The same measure, in the same setting: next, `Cc1nn(CC(=O)NCC2CN(Cc3ccc(Cl)c(Cl)c3)CCO2)c(C)c1Br` (stereo not shown) [Example 35]: 155 nM.
With `O=C(Cc1ccco1)NCC1CN(Cc2ccc(Cl)c(Cl)c2)CCO1` (stereo not shown) [Example 38, N-{[4-(3,4-Dichlorobenzyl)morpholin-2-yl]methyl}-2-(2-furyl)acetamide], the IC50 was 100 nM.
As for `O=C(Cn1nnc(-c2ccccc2)n1)NC[C@H]1CN(Cc2ccc(Cl)c(Cl)c2)CCO1` [Example 44], the IC50 was 6.76 nM.
On to `CS(=O)(=O)Nc1ccc(CC(=O)NCC2CN(Cc3ccc(F)c(F)c3)CCO2)cc1` (stereo not shown) [Example 45], for which the IC50 was 13.2 nM.
On to `CS(=O)(=O)Nc1ccc(CC(=O)NC[C@H]2CN(Cc3ccc(F)cc3)CCO2)cc1` [Example 46, N-{[(2S)-4-(4-Fluorobenzyl)morpholin-2-yl]methyl}-2-{4-[(methylsulfonyl)amino]phenyl}acetamide], for which the IC50 is 72.4 nM.
As for `O=C(Cc1cccc(C(=O)NC2CC2)c1)NCC1CN(Cc2ccc(Cl)c(Cl)c2)CCO1` (stereo not shown) [Example 53, N-Cyclopropyl-3-[2-({[(3,4-dichlorobenzyl)morpolin-2-yl]methyl}amino)-2-oxoethyl]benzamide], the IC50 is 4.07 nM.
On the same count and under the same terms, next, `Cc1oc(-c2ccccc2)nc1CC(=O)NC[C@H]1CN(Cc2ccc(Cl)c(Cl)c2)CCO1` [Example 54, N-{[(2S)-4-(3,4-Dichlorobenzyl)morpholin-2-yl]methyl}-2-(5-methyl-2-phenyl-1,3-oxazol-4-yl)acetamide]: 24 nM; `Cc1oc(-c2ccccc2)nc1CC(=O)NC[C@@H]1CN(Cc2ccc(Cl)c(Cl)c2)CCO1` [Example 55, N-{[(2R)-4-(3,4-Dichlorobenzyl)morpholin-2-yl]methyl}-2-(5-methyl-2-phenyl-1,3-oxazol-4-yl)acetamide]: 398 nM.

Another test has as its target eosinophil chemotaxis. Kind of test: Eosinophil chemotaxis assay (eotaxin-induced). To be noted: functional pKi (fpKi). Type of test: cell-based, human. The protocol:
(b) Eosinophil Chemotaxis Assay.
Compounds were evaluated for their inhibitory effect on eosinophil chemotaxis. Eosinophils were purified from human peripheral blood by standard CD16 cell depletion using a Miltenyi cell separation column and a magnetic Super Macs magnet as previously described (Motegi & Kita, 1998; J. Immunology. 161:4340-6). Cells were re-suspended in RPMI 1640/10% FCS solution and incubated with calcein-AM (Molecular Probes) at 37° C. for 30 mins. Following incubation, the eosinophils were centrifuged at 400 g for 5 min and re-suspended in RPMI/FCS at 2.2 million/ml. Cells. were then incubated in the presence of increasing concentration of compounds (1 pM to 30 μM) at 37° C. for 30 mins. For control responses cells were incubated with RPMI/FCS only. The agonist eotaxin (either a concentration response curve or for the functional inhibition curves an EC80 concentration) was added to the lower chamber of a 96 well chemotaxis plate (5 μm filter: Receptor Technologies). Eosinophils (50 μl of 2 million/ml cells) were added to the top chamber of the filter plate and incubated at 37° C. for 45 mins. Cells remaining on top of the chemotaxis filter were removed and the number of eosinophils which had migrated were quantified by reading the plate on a fluorescent plate reader. Inhibition curves for the effect of compounds on eosinophil chemotaxis were analysed by fitting the data with a four parameter logistic equation. Functional pK1 values (fpK1) were generated using the equation below (Lazareno & Birdsall, 1995. Br. J. Pharmacol 109: 1110-9). [formula] (c) Guinea-pig Ovalbumin Model
For the molecule `C[C@H]1CO[C@H](CNC(=O)Cc2ccc(Cl)cc2)CN1Cc1ccc(Cl)c(Cl)c1` (relative stereo) [Example 27, 2-(4-Chlorophenyl)-N-{[(trans)-4-(3,4-dichlorobenzyl)-5-methylmorpholin-2-yl]methyl}acetamide], the “CCR-3 Eosinophil Chemotaxis Assay (fpKi)” value came out at 7.39.
Turning to `CS(=O)(=O)c1ccc(CC(=O)NC[C@H]2CN(Cc3ccc(Cl)c(Cl)c3)CCO2)cc1` (single isomer, unassigned) [Example 39], the “CCR-3 Eosinophil Chemotaxis Assay (fpKi)” value worked out at 8.31.
Still for that read-out and setting: next, `CS(=O)(=O)c1ccc(CC(=O)NCC2CN(Cc3ccc(Cl)c(Cl)c3)CCO2)cc1.O=CO` (stereo not shown) [Example 2, N-{[4-(3,4-Dichlorobenzyl)morpholin-2-yl]methyl}-2-[4-(methylsulfonyl)phenyl]acetamide salt with formic acid (1:1)]: 6.51.
As to `O=C(Cc1cccc(F)c1)NCC1CN(Cc2ccc(Cl)c(Cl)c2)CCO1` (stereo not shown) [Example 3, N-{[4-(3,4-Dichlorobenzyl)morpholin-2-yl]methyl}-2-(3-fluorophenyl)acetamide], the “CCR-3 Eosinophil Chemotaxis Assay (fpKi)” value stood at 7.15.
For `CN(C)c1ccc(CC(=O)NCC2CN(Cc3ccc(Cl)c(Cl)c3)CCO2)cc1.O=CO` (stereo not shown) [Example 12, N-{[4-(3,4-Dichlorobenzyl)morpholin-2-yl]methyl}-2-[4-(dimethylamino)phenyl]acetamide salt with formic acid (1:1)], the “CCR-3 Eosinophil Chemotaxis Assay (fpKi)” value worked out at 6.82.
For `O=C(Cc1cc(C(F)(F)F)cc(C(F)(F)F)c1)NCC1CN(Cc2ccc(Cl)c(Cl)c2)CCO1` (stereo not shown) [Example 17, 2-[3,5-Bis(trifluoromethyl)phenyl]-N-{[4-(3,4-dichlorobenzyl)morpholin-2-yl]methyl}acetamide], the “CCR-3 Eosinophil Chemotaxis Assay (fpKi)” value stood at 6.24.
On the same count and under the same terms, next, `O=C(Cc1ccsc1)NCC1CN(Cc2ccc(Cl)c(Cl)c2)CCO1` (stereo not shown) [Example 32, N-{[4-(3,4-Dichlorobenzyl)morpholin-2-yl]methyl}-2-thien-3-ylacetamide]: 7.32; `O=C(Cc1csc(-c2cnccn2)n1)NCC1CN(Cc2ccc(Cl)c(Cl)c2)CCO1` (stereo not shown) [Example 37, N-{[4-(3,4-Dichlorobenzyl)morpholin-2-yl]methyl}-2-(2-pyrazin-2-yl-1,3-thiazol-4-yi)acetamide]: 7.97; `Cc1oc(-c2ccc(F)cc2)nc1CC(=O)NCC1CN(Cc2ccc(Cl)c(Cl)c2)CCO1` (stereo not shown) [Example 41, N-{[4-(3,4-Dichlorobenzyl)morpholin-2-yl]methyl}-2-[2-(4-fluorophenyl)-5-methyl-1,3-oxazol-4-yl]acetamide]: 7.99.
Same read-out and setting: next, `O=C(Cc1csc(-c2cnccn2)n1)NC[C@H]1CN(Cc2ccc(Cl)c(Cl)c2)CCO1` [Example 42, N-([(2S)-4-(3,4-Dichlorobenzyl)morpholin-2-yl]methyl}-2-(2-pyrazin-2-yl-1,3-thiazol-4-yl)acetamide]: 9.32; `CS(=O)(=O)Nc1cccc(CC(=O)NC[C@H]2CN(Cc3ccc(Cl)s3)CCO2)c1` [Example 49, N-({(2S)-4-[(5-Chlorothien-2-yl)methyl]morpholin-2-yl}methyl)-2-{3-[(methylsulfonyl)amino]phenyl]acetamide]: 8.07; `Cc1oc(-c2ccccc2)nc1CC(=O)NC[C@H]1CN(Cc2ccc(Cl)c(Cl)c2)CCO1` [Example 54, N-{[(2S)-4-(3,4-Dichlorobenzyl)morpholin-2-yl]methyl}-2-(5-methyl-2-phenyl-1,3-oxazol-4-yl)acetamide]: 7.96.
